Data published in ChEMBL document CHEMBL5360654, “Indazole as a Phenol Bioisostere: Structure-Affinity Relationships of GluN2B-Selective NMDA Receptor Antagonists” (J Med Chem, 2023).
pIC50, pKi: −log10 of the molar value. Activity calls are given as the source filed them. The rule behind the calls is not given here.

How the values were obtained:
[1] = molecular target: T1, Sigma intracellular receptor 2 (Rattus norvegicus, UniProt Q5U3Y7); assay: Displacement of [3H]di-o-tolylguanidine from sigma2 receptor in rat liver membrane assessed as inhibition constant measured after 120 mins by scintillation counting method; assay type: cell membranes
T1 sequence (Q5U3Y7 whole entry): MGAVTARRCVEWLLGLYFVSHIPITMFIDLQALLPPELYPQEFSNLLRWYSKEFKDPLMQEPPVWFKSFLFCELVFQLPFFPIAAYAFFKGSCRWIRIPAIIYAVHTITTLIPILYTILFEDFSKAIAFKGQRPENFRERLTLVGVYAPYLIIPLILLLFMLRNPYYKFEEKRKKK

[2] = molecular target: Sigma non-opioid intracellular receptor 1 (Cavia porcellus, UniProt Q60492); assay: Displacement of [3H]-(+)-pentazocine from sigma1 receptor in guinea pig brain membrane assessed as inhibition constant measured after 120 mins by scintillation counting method; assay type: cell membranes
[3] = molecular target: T2, Glutamate receptor ionotropic, NMDA 2B (Homo sapiens, UniProt Q05586+Q13224); assay: Displacement of [3H]ifenprodil from human GluN2B expressed in mouse L-M(TK-) cell membrane coexpressing GluN1a assessed as inhibition constant measured after 120 mins by competitive binding assay; assay type: cell membranes
[4] = Drug metabolism in rat liver microsome assessed as formation of glucuronide metabolite (2S,3S,4S,5R,6R)-6-(5-((R)-3-(4-benzylpiperidin-1-yl)-1-hydroxypropyl)-1H-indazol-1-yl)-3,4,5-trihydroxytetrahydro-2H-pyran-2-carboxylic acid in presence of NADPH/UDP-GA by LC-MS analysis; assay type: ADME; conditions: microsomes
[5] = molecular target: T2, Glutamate receptor ionotropic, NMDA 2B; assay: Antagonist activity at GluN2B receptor (unknown origin) expressed in Xenopus oocytes coexpressing GluN1a at -70 mV holding potential in presence of (S)-glutamate/glycine by TEVC analysis; assay type: cell-based, Oocyte
[6] = Metabolic stability in rat liver microsome assessed as intact compound incubated for 90 mins in presence of NADPH by LC-MS analysis; assay type: ADME; conditions: liver microsomes, read-out: Stability
[7] = molecular target: Glutamate receptor ionotropic, NMDA 2B (Homo sapiens) (UniProt Q13224); assay: Antagonist activity at GluN2B receptor (unknown origin) expressed in Xenopus oocytes coexpressing GluN1a at 10 uM at -70 mV holding potential in presence of (S)-glutamate/glycine by TEVC analysis relative to control; assay type: cell-based; conditions: Oocyte, filed as antagonist
[8] = molecular target: Glutamate receptor ionotropic, NMDA 2B (Homo sapiens) (UniProt Q13224); assay: Antagonist activity at GluN2B receptor (unknown origin) expressed in Xenopus oocytes coexpressing GluN1a at 1 uM at -70 mV holding potential in presence of (S)-glutamate/glycine by TEVC analysis; assay type: cell-based; conditions: Oocyte, filed as antagonist
[9] = Lipophilicity, log D of compound at pH 7.4 by LC-MS analysis; assay type: physicochemical; conditions: buffer
[10] = Drug metabolism in rat liver microsome assessed as formation of glucuronide metabolite (2S,3S,4S,5R,6S)-6-(4-(3-(4-(4-fluorobenzyl)piperidin-1-yl)prop-1-yn-1-yl)phenoxy)-3,4,5-trihydroxytetrahydro-2H-pyran-2-carboxylic acid in presence of NADPH/UDP-GA by LC-MS analysis; assay type: ADME; conditions: microsomes
[11] = Drug metabolism in rat liver microsome assessed as formation of glucuronide metabolite (2S,3S,4S,5R,6S)-6-(4-((1R,2S)-3-(4-benzylpiperidin-1-yl)-1-hydroxy-2-methylpropyl)phenoxy)-3,4,5-trihydroxytetrahydro-2H-pyran-2-carboxylic acid in presence of NADPH/UDP-GA by LC-MS analysis; assay type: ADME; conditions: microsomes
[12] = molecular target: Glutamate NMDA receptor; GRIN1/GRIN2B (Homo sapiens, UniProt Q05586+Q13224); assay: Antagonist activity at GluN1A/GluN2B receptor (unknown origin) expressed in Xenopus oocytes by voltage clamp method; assay type: cell-based, Oocyte
[13] = Drug metabolism in rat liver microsome assessed as formation of glucuronide metabolite (2S,3S,4S,5R,6R)-6-(5-((S)-3-(4-benzylpiperidin-1-yl)-1-hydroxypropyl)-1H-indazol-1-yl)-3,4,5-trihydroxytetrahydro-2H-pyran-2-carboxylic acid in presence of NADPH/UDP-GA by LC-MS analysis; assay type: ADME; conditions: microsomes
[14] = Drug metabolism in rat liver microsome assessed as formation of glucuronide metabolite (2S,3S,4S,5R,6R)-6-(5-(3-(4-(4-fluorobenzyl)piperidin-1-yl)prop-1-yn-1-yl)-1H-indazol-1-yl)-3,4,5-trihydroxytetrahydro-2H-pyran-2-carboxylic acid in presence of NADPH/UDP-GA by LC-MS analysis; assay type: ADME; conditions: microsomes

Chain of Sigma non-opioid intracellular receptor 1 (Q60492 whole entry): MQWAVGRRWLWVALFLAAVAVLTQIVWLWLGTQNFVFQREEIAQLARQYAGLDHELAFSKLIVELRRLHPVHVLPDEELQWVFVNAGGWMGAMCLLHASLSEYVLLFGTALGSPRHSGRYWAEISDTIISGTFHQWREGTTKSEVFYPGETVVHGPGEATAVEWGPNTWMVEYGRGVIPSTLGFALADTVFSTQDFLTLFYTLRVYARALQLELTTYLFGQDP
Chain of Glutamate receptor ionotropic, NMDA 2B (Homo sapiens) (Q13224 27-1484 limits assumed): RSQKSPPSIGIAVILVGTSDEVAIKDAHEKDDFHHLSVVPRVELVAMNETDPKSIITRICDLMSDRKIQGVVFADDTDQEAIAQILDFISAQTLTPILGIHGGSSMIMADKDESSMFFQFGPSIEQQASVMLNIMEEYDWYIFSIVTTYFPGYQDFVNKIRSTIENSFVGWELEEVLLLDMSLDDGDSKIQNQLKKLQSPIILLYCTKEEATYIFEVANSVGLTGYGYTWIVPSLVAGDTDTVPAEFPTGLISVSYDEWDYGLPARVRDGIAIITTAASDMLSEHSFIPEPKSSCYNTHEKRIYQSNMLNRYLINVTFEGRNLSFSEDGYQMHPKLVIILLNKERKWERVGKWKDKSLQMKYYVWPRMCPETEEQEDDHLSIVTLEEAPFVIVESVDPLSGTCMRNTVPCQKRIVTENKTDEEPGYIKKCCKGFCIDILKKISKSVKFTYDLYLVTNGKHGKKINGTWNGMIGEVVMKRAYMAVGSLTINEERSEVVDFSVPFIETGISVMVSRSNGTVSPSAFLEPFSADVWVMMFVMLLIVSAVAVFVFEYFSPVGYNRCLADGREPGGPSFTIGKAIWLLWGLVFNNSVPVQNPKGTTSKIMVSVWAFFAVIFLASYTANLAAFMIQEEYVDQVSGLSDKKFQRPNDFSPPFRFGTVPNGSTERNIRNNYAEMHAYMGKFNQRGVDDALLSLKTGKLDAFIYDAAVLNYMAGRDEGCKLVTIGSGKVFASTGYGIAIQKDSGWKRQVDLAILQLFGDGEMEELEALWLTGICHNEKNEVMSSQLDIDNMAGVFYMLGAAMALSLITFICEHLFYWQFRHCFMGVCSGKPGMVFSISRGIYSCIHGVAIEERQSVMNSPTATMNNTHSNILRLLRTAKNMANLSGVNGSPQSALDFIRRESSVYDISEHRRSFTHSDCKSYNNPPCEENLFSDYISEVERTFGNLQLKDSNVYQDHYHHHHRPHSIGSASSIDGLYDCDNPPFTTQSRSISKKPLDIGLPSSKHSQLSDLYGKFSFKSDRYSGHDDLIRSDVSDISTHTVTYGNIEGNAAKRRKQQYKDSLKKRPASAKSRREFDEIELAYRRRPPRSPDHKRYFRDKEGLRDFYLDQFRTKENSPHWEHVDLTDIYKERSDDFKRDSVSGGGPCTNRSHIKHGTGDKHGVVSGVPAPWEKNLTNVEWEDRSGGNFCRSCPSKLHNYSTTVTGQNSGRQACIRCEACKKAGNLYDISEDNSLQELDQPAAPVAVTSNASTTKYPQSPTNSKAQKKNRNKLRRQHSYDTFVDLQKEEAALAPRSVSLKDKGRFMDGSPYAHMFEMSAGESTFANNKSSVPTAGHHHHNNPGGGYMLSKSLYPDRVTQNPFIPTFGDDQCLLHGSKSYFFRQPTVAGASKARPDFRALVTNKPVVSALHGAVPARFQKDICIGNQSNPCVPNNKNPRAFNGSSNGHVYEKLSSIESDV
T2 sequence (Q13224 whole entry, one chain of several): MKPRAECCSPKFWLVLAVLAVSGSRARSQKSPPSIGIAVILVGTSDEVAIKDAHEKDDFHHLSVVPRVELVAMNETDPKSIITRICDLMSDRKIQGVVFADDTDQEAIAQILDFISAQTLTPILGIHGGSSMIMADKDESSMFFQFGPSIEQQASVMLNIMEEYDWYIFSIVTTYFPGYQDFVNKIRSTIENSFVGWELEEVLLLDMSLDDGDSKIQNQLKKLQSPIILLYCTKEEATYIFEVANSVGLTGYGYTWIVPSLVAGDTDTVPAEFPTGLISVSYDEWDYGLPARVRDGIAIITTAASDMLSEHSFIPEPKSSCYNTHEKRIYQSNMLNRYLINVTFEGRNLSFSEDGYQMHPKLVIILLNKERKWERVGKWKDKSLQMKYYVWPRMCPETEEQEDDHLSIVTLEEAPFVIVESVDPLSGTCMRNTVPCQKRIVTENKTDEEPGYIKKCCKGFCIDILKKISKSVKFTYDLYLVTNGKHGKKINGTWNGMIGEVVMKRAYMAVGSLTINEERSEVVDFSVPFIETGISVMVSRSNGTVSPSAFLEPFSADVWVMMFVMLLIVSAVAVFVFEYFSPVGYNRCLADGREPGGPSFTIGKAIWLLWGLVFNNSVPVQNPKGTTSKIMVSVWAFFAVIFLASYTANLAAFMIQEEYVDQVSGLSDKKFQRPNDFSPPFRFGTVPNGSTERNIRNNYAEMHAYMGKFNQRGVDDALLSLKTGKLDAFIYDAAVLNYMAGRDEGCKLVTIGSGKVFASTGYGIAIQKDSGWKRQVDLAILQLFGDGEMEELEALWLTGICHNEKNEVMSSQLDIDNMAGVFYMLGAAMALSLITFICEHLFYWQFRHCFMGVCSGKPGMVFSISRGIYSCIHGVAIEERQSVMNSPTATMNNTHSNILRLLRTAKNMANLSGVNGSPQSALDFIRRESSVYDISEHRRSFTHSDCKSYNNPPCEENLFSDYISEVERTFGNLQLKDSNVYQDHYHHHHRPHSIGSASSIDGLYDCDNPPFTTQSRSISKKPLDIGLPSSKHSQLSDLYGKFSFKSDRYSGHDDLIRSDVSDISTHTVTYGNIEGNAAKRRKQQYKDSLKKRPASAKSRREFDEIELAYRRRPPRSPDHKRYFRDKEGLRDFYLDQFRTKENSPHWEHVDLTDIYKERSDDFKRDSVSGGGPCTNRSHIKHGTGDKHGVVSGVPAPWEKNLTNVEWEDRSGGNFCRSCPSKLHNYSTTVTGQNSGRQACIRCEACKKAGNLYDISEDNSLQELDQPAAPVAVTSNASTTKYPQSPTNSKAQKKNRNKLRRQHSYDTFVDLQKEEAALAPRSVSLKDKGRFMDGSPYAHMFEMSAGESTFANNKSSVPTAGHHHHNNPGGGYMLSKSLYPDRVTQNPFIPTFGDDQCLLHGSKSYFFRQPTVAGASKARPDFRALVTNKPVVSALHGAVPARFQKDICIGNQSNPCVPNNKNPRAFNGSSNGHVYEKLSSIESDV
Chain of Glutamate NMDA receptor; GRIN1/GRIN2B (Q13224 whole entry, other chains not shown): as the sequence (Q13224 whole entry, one chain of several) above

Structure (SMILES)	pKi [1]	pKi [2]	pKi [3]	also measured
O[C@H](CCN1CCC(Cc2ccccc2)CC1)c1ccc2[nH]ncc2c1	6.62	7.24	6.58	Drug metabolism [4]: Metabolite_Notdetected; pIC50 [5]: 7.21; remaining at 1.5 h [6]: ~67%
Cn1ncc2cc(C#CCN3CCC(Cc4ccccc4)CC3)ccc21	6.49	7.70	7.42	–
C[C@@H](CN1CCC(Cc2ccccc2)CC1)[C@@H](O)c1ccc(O)cc1	–	–	–	Drug metabolism [11]: Metabolite_Detected
Fc1ccc(CC2CCN(CC#Cc3ccc4cn[nH]c4c3)CC2)cc1	6.07	7.59	7.46	–
C(#Cc1ccc2cn[nH]c2c1)CN1CCC(Cc2ccccc2)CC1	6.28	7.92	7.28	–
Oc1ccc(C#CCN2CCC(Cc3ccccc3)CC2)cc1	–	–	–	pIC50 [12]: 7.00
Cn1cc2cc(C#CCN3CCC(Cc4ccc(F)cc4)CC3)ccc2n1	6.82	7.49	6.74	–
Fc1ccc(CC2CCN(C/C=C\c3ccc4[nH]ncc4c3)CC2)cc1	7.01	7.11	7.38	–
C(=C/c1ccc2[nH]ncc2c1)/CN1CCC(Cc2ccccc2)CC1	6.87	6.25	6.92	–
O[C@@H](CCN1CCC(Cc2ccccc2)CC1)c1ccc2[nH]ncc2c1	6.91	7.07	7.03	Drug metabolism [13]: Metabolite_Notdetected; pIC50 [5]: 7.14; remaining at 1.5 h [6]: ~67%
OC(CCN1CCC(Cc2ccccc2)CC1)c1ccc2[nH]ncc2c1 (stereo not given)	7.06	7.26	7.42	inhibition [7]: > 80%; inhibition [8]: Active; logD [9]: 1.75
OC(CCN1CCC(Cc2ccccc2F)CC1)c1ccc2[nH]ncc2c1 (stereo not given)	6.92	6.65	7.42	–

Further compounds by rising pKi [1], results first:

pKi [1]	pKi [2]	pKi [3]	Structure (SMILES)	also measured
7.20	7.40	7.54	Cn1ncc2cc(C#CCN3CCC(Cc4ccc(F)cc4)CC3)ccc21	–
7.20	7.64	6.87	Cn1cc2cc(C#CCN3CCC(Cc4ccccc4)CC3)ccc2n1	–
7.29	7.68	7.25	O=C(CCN1CCC(Cc2ccc(F)cc2)CC1)c1ccc2[nH]ncc2c1	–
7.43	7.44	7.92	Oc1ccc(C#CCN2CCC(Cc3ccc(F)cc3)CC2)cc1	Drug metabolism [10]: Metabolite_Detected; logD [9]: 4.4
7.43	8.00	7.70	Fc1ccc(CC2CCN(C/C=C/c3ccc4[nH]ncc4c3)CC2)cc1	–
7.51	7.24	7.60	Fc1ccccc1CC1CCN(CC#Cc2ccc3[nH]ncc3c2)CC1	–
7.72	7.77	7.70	O=C(CCN1CCC(Cc2ccccc2F)CC1)c1ccc2[nH]ncc2c1	–
7.74	8.06	7.74	O=C(CCN1CCC(Cc2ccccc2)CC1)c1ccc2[nH]ncc2c1	inhibition [7]: > 80%; inhibition [8]: Active; logD [9]: 2.64
7.74	7.92	7.49	OC(CCN1CCC(Cc2ccc(F)cc2)CC1)c1ccc2[nH]ncc2c1 (stereo not given)	logD [9]: 2.02
7.85	8.38	7.89	Fc1ccc(CC2CCN(CCCc3ccc4[nH]ncc4c3)CC2)cc1	–
7.89	8.18	7.89	Fc1ccc(CC2CCN(CC#Cc3ccc4[nH]ncc4c3)CC2)cc1	Drug metabolism [14]: Metabolite_Notdetected; logD [9]: 4.35
7.92	8.12	8.24	c1ccc(CC2CCN(CCCc3ccc4[nH]ncc4c3)CC2)cc1	inhibition [7]: > 80%; logD [9]: 2.63
7.96	7.59	7.96	C(#Cc1ccc2[nH]ncc2c1)CN1CCC(Cc2ccccc2)CC1	logD [9]: 4.17; pIC50 [12]: 6.42
8.00	8.57	8.18	C(=C\c1ccc2[nH]ncc2c1)/CN1CCC(Cc2ccccc2)CC1	–
